Results from patent publication US12384745B2, “Crystal form of five-membered n heterocyclic compound, and application thereof” (CHIA TAI TIANQING PHARMACEUTICAL GROUP CO., LTD., priority 2019, dated 2025).

Legend:
[1] = tested on: HBV DNA in HepAD38 cells; assay: In-vitro inhibitory activity against HBV DNA in HepAD38 cells; assay type: cell-based; conditions: Hepatitis B virus, 144 h, 6 days treatment, intracellular capsid HBV DNA by qPCR, read-out: EC50, anti-HBV activity
Procedure: (§1) 2.1. In-vitro Inhibitory Activity Against HBV DNA in Cells
(§2) A vial of HepG2.2.15 cells (Wuhan Institute of Virology) or HepAD38 cells in good condition and at logarithmic growth phase was washed once with 5 mL of PBS. 3 mL of pancreatin was added. The cells were digested at room temperature for 5 min, then 2 mL of pancreatin was discarded. The cells were further digested in a cell incubator for 10 min, and observed under a microscope (whether the cells are round in shape, and whether the cells are separated or adhered). 10 mL of complete medium was added to terminate the digestion. The cells was mixed using a pipette to obtain a single cell suspension. 10 μL of the cell suspension was loaded on a cell counter for counting, and diluted with the complete medium to adjust the cell density to 1×10^5 cells/mL. The cells were seeded on a 24-well plate (pre-coated with 50 μg/mL Collagen I solution) at 1 mL/well using a multi-channel pipette and cultured in a thermostatic CO2 incubator for 48 h.
(§3) A solution of the compound dissolved in DMSO was diluted to 10 concentrations in a 2-fold gradient using complete medium. […] HBV DNA in the intracellular viral capsid was measured by real-time fluorescent quantitative PCR. The inhibition rate was calculated according to the Ct value, and the EC50 value was calculated by four-parameter fitting.

[2] = tested on: HBV DNA in HepG2.2.15 cells; assay: In-vitro inhibitory activity against HBV DNA in HepG2.2.15 cells; assay type: cell-based; conditions: Hepatitis B virus, 144 h, 6 days treatment, intracellular capsid HBV DNA by qPCR, read-out: EC50, anti-HBV activity
Procedure: as §1, §2, §3

[3] = tested on: HepG2.2.15 cells; assay: In vitro cytotoxicity (CCK-8); assay type: cell-based; conditions: 6 days treatment
Procedure: 2.2. In Vitro Cytotoxicity
A vial of HepG2.2.15 cells (Wuhan Institute of Virology) in good condition and at logarithmic growth phase was washed once with 5 mL of PBS. 2 mL of pancreatin was added. The cells were incubated in a cell incubator for digestion, and observed at times under a microscope. 1 mL of pancreatin was discarded when the cells just fell off, leaving the residual liquid only. The cells were further incubated in the incubator at 37° C. for 8-15 min of digestion and observed under a microscope (whether the cells are round in shape, and whether the cells are separated or adhered). 5 mL of MEM medium was added for cell resuspension. The cell suspension was loaded on a cell counter for counting, and diluted with the complete medium to adjust the cell density to 2×10^5 cells/mL. The cells were seeded on a 96-well plate (pre-coated with 50 μg/mL Collagen I solution) at 100 μL/well using a multi-channel pipette and cultured in a thermostatic CO2 incubator for 24 h. The compound was added, and the medium containing the compound was refreshed every 3 days. A medium containing 0.5% of DMSO but no compound was added to the control wells, and control wells of basal medium were set. After 6 days of treatment, CCK-8 was added at 10 μL/well, and after 1-2 h, the absorbance at 450 nm was measured with a plate reader. The inhibition rate and CC50 were calculated.

[4] = Plasma protein binding assay, human plasma; assay type: in vitro ADME
Procedure: (§4) 2.4. Plasma Protein Binding Assay
(§5) Preparation of plasma samples: 5 μL of test compound solution or positive control was added to 495 μL of blank plasma of various species (mouse, rat, dog, monkey and human) to obtain plasma sample solutions at plasma concentrations of 1 μM and 10 μM (in acetonitrile).
(§6) The pretreated dialysis membrane was loaded on a high-throughput equilibrium dialysis system. 100 μL of the plasma sample solution and PBS buffer were added to the two sides (sample side and buffer side) of the dialysis membrane respectively (n=3). The system was sealed with a patch and incubated at 37° C. overnight (100 rpm) to achieve dialysis equilibrium. 50 μL samples were taken from the sample side and the buffer side, and the reaction was terminated with glacial acetonitrile containing an internal standard.
(§7) Sample pretreatment: 450 μL of glacial acetonitrile containing an internal standard was added to 50 μL of the sample from the plasma side for precipitation. The mixture was vortexed for 5 min, and centrifuged (12000 rpm, 4° C.) for 10 min. 75 μL of supernatant was taken and diluted with 75 μL of ultrapure water. After being mixed well, 1 μL of the resulting sample was injected for analysis; 250 μL of glacial acetonitrile containing an internal standard was added to 50 μL of the sample from the PBS side for precipitation. […]

[5] = Plasma protein binding assay, rat plasma; assay type: in vitro ADME
Procedure: as §4, §5, §6, §7

[6] = Plasma protein binding assay, mouse plasma; assay type: in vitro ADME
Procedure: as §4, §5, §6, §7

[7] = Plasma protein binding assay, dog plasma; assay type: in vitro ADME
Procedure: as §4, §5, §6, §7

[8] = Plasma protein binding assay, monkey plasma; assay type: in vitro ADME
Procedure: as §4, §5, §6, §7

[9] = In vitro stability in human liver microsomes; assay type: in vitro ADME
Procedure: (§8) Experimental Example 3. In Vitro Stability in Liver Microsome A final incubation system of 300 μL contained 30 μL of liver microsomes (protein concentration: 0.15 mg/mL, Corning), 30 μL of NADPH+MgCl2, 3 μL of substrate (in acetonitrile) and 237 μL of PBS. Samples were prepared in duplicate of 0.3 mL for each specie. For each tube, the 270 μL mixed solution of substrates and enzyme and the NADPH solution were separately pre-incubated at 37° C. for 5 min. The 30 μL mixed solution of NADPH+MgCl2 was added for reaction. 50-μL samples were taken at 0 min, 10 min, 30 min and 60 min, and 300 μL of glacial acetonitrile containing an internal standard was added to the samples to terminate the reaction. Sample pretreatment: 300 μL of glacial acetonitrile containing internal standard diazepam was added to 50 μL of the incubated sample for precipitation. The mixture was vortexed for 5 min, and centrifuged (12000 rpm, 4° C.) for 10 min. 75 μL of supernatant was added to a 96-well plate and diluted with 75 μL of ultrapure water. After being mixed well, 0.5 μL of the resulting sample was injected to a LC-MS/MS system for analysis.

[10] = In vitro stability in rat liver microsomes; assay type: in vitro ADME
Procedure: as §8

[11] = In vitro stability in mouse liver microsomes; assay type: in vitro ADME
Procedure: as §8

[12] = Pharmacokinetic (PK) study in rats; assay type: in vivo; conditions: SD rats, PO 10 mg/kg vs IV 5 mg/kg
Procedure: Pharmacokinetic (PK) Study in Rats […]
The animals to be tested (SD rats) were fasted for 12 h before administration and fed 4 h after administration, and had free access to water before, after and during the experiment.
After administration, about 0.2 mL of blood was collected from the orbit at 0 min, 15 min, 30 min, 1 h, 2 h, 4 h, 6 h, 8 h, 10 h, 24 h, 30 h and 48 h. After anticoagulation with EDTA-K2, the blood samples were transferred to a centrifuge at 4° C. within 30 min and centrifuged at 4000 rpm for 10 min to separate the plasma. All the plasma samples were collected and immediately stored at −20° C. for testing.
50 μL of the plasma sample to be tested and standard curve sample were taken, and 500 μL of acetonitrile solution containing an internal standard (20 mg/mL diazepam) was added. The reaction system was shaken for 5 min and centrifuged at 12,000 rpm for 10 min. 75 μL of supernatant was taken and diluted with 75 μL of ultrapure water. After being mixed well, 1 μL of the resulting sample was taken for LC/MS/MS analysis.

[13] = Stability assay of crystalline form (influential factors); assay type: physicochemical
Procedure: 1.1. Preparation of Samples
500 mg of the crystalline form A of the compound of formula I prepared in Example 2 was placed in a dry and clean container, and evenly spread in a thin layer as the test sample. The sample was completely exposed to experimental conditions of influential factors (40° C., 60° C., 75% RH, 92.5% RH, high temperature and high humidity (40° C., 75% RH)). Samples were taken for analysis on day 10. The samples were completely exposed to illumination (visible light of 1,200,000 Lux·hr, UV of 216 W·hr/m^2) at room temperature.
1.2. Chromatographic Conditions
Chromatographic column: Waters XBridge Shield RP18 (4.6 mm×150 mm, 3.5 μm).
The water content was measured by a Mettler V20 system.
1.3. Preparation of Sample Solution
About 12.5 mg of the sample was dissolved with an appropriate amount of a mixed diluent of acetonitrile-water (70:30) for content assay of related substance.

[14] = High humidity (75% RH), 10 days
[15] = High humidity (92.5% RH), 10 days
[16] = High temperature (40° C.), 10 days
[17] = High temperature (60° C.), 10 days
[18] = High temperature and high humidity (40° C., 75% RH), 10 days

## Cc1[nH]c(C(=O)C(=O)N[C@@H](C)C(F)(F)F)c(C)c1C(=O)Nc1ccc(F)c(C#N)c1 [Compound of formula I, (S)-N-(3-cyano-4-fluorophenyl)-2,4-dimethyl-5-(2-oxo-2-((1,1,1-trifluoropropan-2-yl)amino)acetyl)-1H-pyrrol-3-formamide]
[1]
  EC50: 24 nM
[2]
  EC50: 17.4 nM
[3]
  CC50: > 100000 nM
[4]; 1 μM
  Binding rate: 97.3%
[4]; 10 μM
  Binding rate: 97.3%
[5]; 1 μM
  Binding rate: 95.0%
[5]; 10 μM
  Binding rate: 95.3%
[6]; 1 μM
  Binding rate: 85.4%
[6]; 10 μM
  Binding rate: 85.5%
[7]; 1 μM
  Binding rate: 94.0%
[7]; 10 μM
  Binding rate: 93.9%
[8]; 1 μM
  Binding rate: 90.2%
[8]; 10 μM
  Binding rate: 90.5%
[9]
  Human liver microsomes Residual content after 60 min: 99%
[10]
  Rat liver microsomes Residual content after 60 min: 99%
[11]
  Mouse liver microsomes Residual content after 60 min: 96%
[12]
  F: 100%

## Cc1[nH]c(C(=O)C(=O)N[C@@H](C)C(F)(F)F)c(C)c1C(=O)Nc1ccc(F)c(C#N)c1 [(S)-N-(3-cyano-4-fluorophenyl)-2,4-dimethyl-5-(2-oxo-2-((1,1,1-trifluoropropan-2-yl)amino)acetyl)-1H-pyrrol-3-formamide]
[13]; Day 0
  Related substance (total impurities): 0.57%
  Water: 0.13%
[13]; [14]
  Related substance (total impurities): 0.63%
  Water: 0.15%
[13]; [15]
  Related substance (total impurities): 0.65%
  Water: 0.17%
[13]; [16]
  Related substance (total impurities): 0.65%
  Water: 0.17%
[13]; [17]
  Related substance (total impurities): 0.65%
  Water: 0.16%
[13]; [18]
  Related substance (total impurities): 0.63%
  Water: 0.16%
[13]; Illumination, 10 days
  Related substance (total impurities): 0.64%
  Water: 0.16%
[13]; summary of Table 2
  Stability at high humidity, at high temperature or under illumination: good stability
